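96-well plates; 48 h exposure; 5 concentrations. Endpoints by linear interpolation between flanking doses. Not reached: highest tested concentration assigned. Abbreviation: GI50, concentration required for 50% inhibition of growth.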 Active and inactive are the calls of the source. Rule as the data show it: active = GI50 up to about 1.1 µM and inactive = higher.
Assays:
Assay in all cases: growth of human tumour cells (NCI), 48 h
A549 = test system: A549
786-0 = test system: 786-0
RXF 393 = test system: RXF 393
HOP-92 = test system: HOP-92
Malme-3M = test system: Malme-3M
MOLT-4 = test system: MOLT-4
UACC-62 = test system: UACC-62
SW-620 = test system: SW-620
TK-10 = test system: TK-10
A498 = test system: A498
HOP-62 = test system: HOP-62
HCC 2998 = test system: HCC 2998
UACC-257 = test system: UACC-257
LOX IMVI = test system: LOX IMVI
SF-295 = test system: SF-295
KM12 = test system: KM12
SK-MEL-2 = test system: SK-MEL-2

| Structure (SMILES) | GI50 (A549) | GI50 (786-0) | GI50 (RXF 393) | GI50 (HOP-92) | GI50 (Malme-3M) | GI50 (MOLT-4) | GI50 (UACC-62) | GI50 (SW-620) | GI50 (TK-10) | GI50 (A498) | GI50 (HOP-62) | GI50 (HCC 2998) | GI50 (UACC-257) | GI50 (LOX IMVI) | GI50 (SF-295) | GI50 (KM12) | GI50 (SK-MEL-2) |
| --- | --- | --- | --- | --- | --- | --- | --- | --- | --- | --- | --- | --- | --- | --- | --- | --- | --- |
| CC(Oc1ccc2c(=O)cc(-c3ccccc3)oc2c1)C(=O)O (stereo unspecified) | > 100 µM (inactive) | > 100 µM (inactive) | > 100 µM (inactive) | > 100 µM (inactive) | > 100 µM (inactive) | > 100 µM (inactive) | > 100 µM (inactive) | > 100 µM (inactive) | > 100 µM (inactive) | > 100 µM (inactive) | > 100 µM (inactive) | > 100 µM (inactive) | > 100 µM (inactive) | > 100 µM (inactive) | > 100 µM (inactive) | > 100 µM (inactive) | – |
| COc1cc(C2C(C(=O)Nc3ccc([N+](=O)[O-])cc3)=C(C)NC(C)=C2C(=O)Nc2ccc([N+](=O)[O-])cc2)ccc1O | 37.6 µM (inactive) | 29.1 µM (inactive) | 19.5 µM (inactive) | 16.4 µM (inactive) | 20.8 µM (inactive) | 19.9 µM (inactive) | 16.7 µM (inactive) | 21.6 µM (inactive) | 18.2 µM (inactive) | 36.7 µM (inactive) | 18.4 µM (inactive) | 18.4 µM (inactive) | 24.2 µM (inactive) | 14.6 µM (inactive) | 24.7 µM (inactive) | 18.7 µM (inactive) | 15.9 µM (inactive) |
| Nc1nc2c(ncn2C2OC(CO)C(O)C2N)c(=O)[nH]1 (stereo unspecified) | 97.1 µM (inactive) | 48.2 µM (inactive) | – | > 100 µM (inactive) | > 100 µM (inactive) | > 100 µM (inactive) | > 100 µM (inactive) | > 100 µM (inactive) | > 100 µM (inactive) | > 100 µM (inactive) | > 100 µM (inactive) | > 100 µM (inactive) | > 100 µM (inactive) | 60.1 µM (inactive) | > 100 µM (inactive) | > 100 µM (inactive) | > 100 µM (inactive) |
| COc1ccc(S(=O)(=O)NNS(C)(=O)=O)cc1 | > 100 µM (inactive) | > 100 µM (inactive) | > 100 µM (inactive) | – | > 100 µM (inactive) | > 100 µM (inactive) | > 100 µM (inactive) | > 100 µM (inactive) | > 100 µM (inactive) | > 100 µM (inactive) | > 100 µM (inactive) | > 100 µM (inactive) | > 100 µM (inactive) | > 100 µM (inactive) | > 100 µM (inactive) | > 100 µM (inactive) | 60.5 µM (inactive) |
| Cc1ccc(S(=O)(=O)c2ccc(NC(=O)SCCC(=O)O)cc2)cc1 | > 100 µM (inactive) | > 100 µM (inactive) | > 100 µM (inactive) | – | – | > 100 µM (inactive) | > 100 µM (inactive) | > 100 µM (inactive) | > 100 µM (inactive) | > 100 µM (inactive) | > 100 µM (inactive) | > 100 µM (inactive) | > 100 µM (inactive) | > 100 µM (inactive) | > 100 µM (inactive) | > 100 µM (inactive) | > 100 µM (inactive) |
| CC(=O)Nc1ccc(-c2nnc(SCC(=O)Nc3ccc(C)cc3)o2)cc1 | 40.3 µM (inactive) | 17 µM (inactive) | 19 µM (inactive) | 18.4 µM (inactive) | 15.7 µM (inactive) | 32.1 µM (inactive) | 16.9 µM (inactive) | 19.1 µM (inactive) | 27.8 µM (inactive) | – | 56.2 µM (inactive) | – | 20.3 µM (inactive) | 15.2 µM (inactive) | 16.6 µM (inactive) | 19.1 µM (inactive) | 14.5 µM (inactive) |
| Cn1ncc2c(c1=O)Nc1ccccc1S2(=O)=O | > 100 µM (inactive) | 28.4 µM (inactive) | – | > 100 µM (inactive) | > 100 µM (inactive) | > 100 µM (inactive) | > 100 µM (inactive) | 10.8 µM (inactive) | > 100 µM (inactive) | > 100 µM (inactive) | > 100 µM (inactive) | > 100 µM (inactive) | > 100 µM (inactive) | > 100 µM (inactive) | > 100 µM (inactive) | > 100 µM (inactive) | > 100 µM (inactive) |
| Cc1cccc(C)c1NC(=O)C(=O)CC(=O)c1cccc([N+](=O)[O-])c1 | > 100 µM (inactive) | > 100 µM (inactive) | – | > 100 µM (inactive) | > 100 µM (inactive) | > 100 µM (inactive) | > 100 µM (inactive) | > 100 µM (inactive) | > 100 µM (inactive) | > 100 µM (inactive) | > 100 µM (inactive) | – | > 100 µM (inactive) | – | > 100 µM (inactive) | > 100 µM (inactive) | > 100 µM (inactive) |
| O=C1/C(=C/c2ccc(Cl)cc2)CNC/C1=C\c1ccc(Cl)cc1 | 3.4 µM (inactive) | 2.07 µM (inactive) | – | – | 3.81 µM (inactive) | 2.28 µM (inactive) | 2.07 µM (inactive) | 0.792 µM (active) | 4.06 µM (inactive) | 2.32 µM (inactive) | 3.42 µM (inactive) | 2.23 µM (inactive) | – | – | – | 1.44 µM (inactive) | – |

Reference: ChEMBL document CHEMBL1201862, “PubChem BioAssay data set” (2004)
